According to ChEMBL document CHEMBL5136971, “Virtual screening and in vitro validation identifies the first reported inhibitors of Salmonella enterica HPPK” (RSC Med Chem, 2021):
pIC50, pKd: −log10 of the molar value. Each block holds one compound with its values, some of them ahead of it. Activity calls are given as the source filed them. The calls are words filed in the database; no cut-off is given here.

Assays:
[1] = Inhibition of Escherichia coli HPPK
[2] = Binding affinity to Escherichia coli HPPK
Salmonella enterica = experiment: Inhibition of Salmonella enterica HPPK at 50 uM incubated for 20 mins in presence of ATP by Kinase Glo luminescence assay
[3] = Inhibition of Salmonella enterica HPPK incubated for 20 mins in presence of ATP by Kinase Glo luminescence assay
[4] = Inhibition of Salmonella enterica HPPK
[5] = Binding affinity to Salmonella enterica HPPK
Escherichia coli = experiment: Inhibition of Escherichia coli HPPK at 50 uM incubated for 20 mins in presence of ATP by Kinase Glo luminescence assay

pIC50 [1]: 5.49
SMILES: CC1(C)Nc2nc(N)[nH]c(=O)c2N=C1C(=O)NCCN1CCC(SC[C@H]2O[C@@H](n3cnc4c(N)ncnc43)[C@H](O)[C@@H]2O)CC1
pKd [2]: 5.60

inhibition activity call (active/inactive) (Salmonella enterica): Active
SMILES: CCOC(=O)N1CCN(S(=O)(=O)c2ccc3c4c(cccc24)C(=O)N3)CC1

pIC50 [3]: 4.98 | inhibition activity call (active/inactive) (Salmonella enterica): Active
SMILES: O=C(NCc1n[nH]c(=O)c2ccccc12)c1cccc(Cl)c1

pIC50 [4]: 4.60 | pKd [5]: 6.35
SMILES: Nc1nc2[nH]c(SCc3ccccc3F)nc2c(=O)[nH]1

pIC50 [1]: 6.42
SMILES: CC1(C)Nc2nc(N)[nH]c(=O)c2N=C1C(=O)NCCN1CC[C@@H](SC[C@H]2O[C@@H](n3cnc4c(N)ncnc43)[C@H](O)[C@@H]2O)C[C@@H]1C(=O)O
pKd [2]: 6.72

inhibition (Escherichia coli): Active | inhibition activity call (active/inactive) (Salmonella enterica): Active
SMILES: Cc1ccc2c(C)c(C(=O)NCc3ccc(S(N)(=O)=O)cc3)oc2c1

inhibition activity call (active/inactive) (Salmonella enterica): Active
SMILES: Cc1cccc(NC(=O)CN2C(=O)N/C(=C\c3cccn3-c3ccccc3)C2=O)c1

inhibition activity call (active/inactive) (Salmonella enterica): Active
SMILES: O=C(c1ccccc1F)N1CCN(c2ccc([N+](=O)[O-])c3ncccc23)CC1

inhibition (Escherichia coli): Active | inhibition activity call (active/inactive) (Salmonella enterica): Active
SMILES: O=C1CC(C(=O)Nc2cccc3ccccc23)C2(CCCCC2)O1 (stereo not given)
